From US11964967B2, “Cardiac sarcomere inhibitors” (Cytokinetics, Inc., priority 2018, dated 2024)
Each block holds one compound with its values, some of them ahead of it.

Target: T1, bovine cardiac myofibrils (Bos taurus, UniProt Q9BE39)
T1 construct: full-length cardiac myosin in the context of the native sarcomere; from tissue; host or cells: bovine cardiac left ventricular tissue, homogenized with detergent (triton X-100)
Experiment: Skinned bovine cardiac myofibril ATPase assay (PK/LDH-coupled)
Format: biochemical
Conditions: inhibition of steady-state ATPase activity of bovine cardiac myofibrils, calcium at 75% activation (pCa75), PM12 buffer pH 6.8; for IC50: read-out: CDMF75 IC50
Protocol: To evaluate the effect of compounds on the ATPase activity of full-length cardiac myosin in the context of the native sarcomere, skinned myofibril assays were performed. Bovine cardiac myofibrils were obtained by homogenizing bovine cardiac left ventricular tissue in the presence of a detergent such as triton X-100. Such treatment removes membranes and a majority of the soluble cytoplasmic proteins but leaves intact the cardiac sarcomeric acto-myosin apparatus. Myofibril preparations retain the ability to hydrolyze ATP in an Ca^2+ regulated manner ATPase activities of such myofibril preparations in the presence and absence of compounds were assayed at Ca^2+ concentrations activating to a defined fraction of the maximal rate (i.e., 25%, 75%). Small molecule agents were assessed for their ability to inhibit the steady-state ATPase activity of bovine cardiac myofibrils using pyruvate kinase and lactate dehydrogenase (PK/LDH)-coupled enzyme system. This assay regenerates myosin-produced ADP into ATP by oxidizing NADH, producing an absorbance change at 340 nm. Prior to testing small molecule agents, the bovine cardiac myofibrils were assessed for their calcium responsiveness and the calcium concentration that achieves either a 50% (pCa50) or 75% (pCa75) activation of the myofibril system was chosen as the final condition for assessing the inhibitory activity of the small molecule agents. All enzymatic activity was measured in a buffered solution containing 12 mM PIPES (piperazine-N,N′-bis(2-ethanesulfonic acid), 2 mM magnesium chloride at pH 6.8 (PM 12 buffer). Final assay conditions were 1 mg/mL of bovine cardiac myofibrils, 4 U/mL pyruvate kinase, 6 U/mL lactate dehydrogenase, 50 μM ATP, 0.1 mg/mL BSA (bovine serum albumin), 10 ppm antifoam, 1 mM DTT, 0.5 mM NADH, 1.5 mM PEP, 0.6 mM EGTA, and an amount of CaCl2) sufficient to achieve either 50% or 75% activation of the myofibril ATPase activity. Results for compounds tested are provided in Table A. Compounds tested were prepared in accordance with the synthetic procedures described herein.

T1 sequence (Q9BE39 whole entry): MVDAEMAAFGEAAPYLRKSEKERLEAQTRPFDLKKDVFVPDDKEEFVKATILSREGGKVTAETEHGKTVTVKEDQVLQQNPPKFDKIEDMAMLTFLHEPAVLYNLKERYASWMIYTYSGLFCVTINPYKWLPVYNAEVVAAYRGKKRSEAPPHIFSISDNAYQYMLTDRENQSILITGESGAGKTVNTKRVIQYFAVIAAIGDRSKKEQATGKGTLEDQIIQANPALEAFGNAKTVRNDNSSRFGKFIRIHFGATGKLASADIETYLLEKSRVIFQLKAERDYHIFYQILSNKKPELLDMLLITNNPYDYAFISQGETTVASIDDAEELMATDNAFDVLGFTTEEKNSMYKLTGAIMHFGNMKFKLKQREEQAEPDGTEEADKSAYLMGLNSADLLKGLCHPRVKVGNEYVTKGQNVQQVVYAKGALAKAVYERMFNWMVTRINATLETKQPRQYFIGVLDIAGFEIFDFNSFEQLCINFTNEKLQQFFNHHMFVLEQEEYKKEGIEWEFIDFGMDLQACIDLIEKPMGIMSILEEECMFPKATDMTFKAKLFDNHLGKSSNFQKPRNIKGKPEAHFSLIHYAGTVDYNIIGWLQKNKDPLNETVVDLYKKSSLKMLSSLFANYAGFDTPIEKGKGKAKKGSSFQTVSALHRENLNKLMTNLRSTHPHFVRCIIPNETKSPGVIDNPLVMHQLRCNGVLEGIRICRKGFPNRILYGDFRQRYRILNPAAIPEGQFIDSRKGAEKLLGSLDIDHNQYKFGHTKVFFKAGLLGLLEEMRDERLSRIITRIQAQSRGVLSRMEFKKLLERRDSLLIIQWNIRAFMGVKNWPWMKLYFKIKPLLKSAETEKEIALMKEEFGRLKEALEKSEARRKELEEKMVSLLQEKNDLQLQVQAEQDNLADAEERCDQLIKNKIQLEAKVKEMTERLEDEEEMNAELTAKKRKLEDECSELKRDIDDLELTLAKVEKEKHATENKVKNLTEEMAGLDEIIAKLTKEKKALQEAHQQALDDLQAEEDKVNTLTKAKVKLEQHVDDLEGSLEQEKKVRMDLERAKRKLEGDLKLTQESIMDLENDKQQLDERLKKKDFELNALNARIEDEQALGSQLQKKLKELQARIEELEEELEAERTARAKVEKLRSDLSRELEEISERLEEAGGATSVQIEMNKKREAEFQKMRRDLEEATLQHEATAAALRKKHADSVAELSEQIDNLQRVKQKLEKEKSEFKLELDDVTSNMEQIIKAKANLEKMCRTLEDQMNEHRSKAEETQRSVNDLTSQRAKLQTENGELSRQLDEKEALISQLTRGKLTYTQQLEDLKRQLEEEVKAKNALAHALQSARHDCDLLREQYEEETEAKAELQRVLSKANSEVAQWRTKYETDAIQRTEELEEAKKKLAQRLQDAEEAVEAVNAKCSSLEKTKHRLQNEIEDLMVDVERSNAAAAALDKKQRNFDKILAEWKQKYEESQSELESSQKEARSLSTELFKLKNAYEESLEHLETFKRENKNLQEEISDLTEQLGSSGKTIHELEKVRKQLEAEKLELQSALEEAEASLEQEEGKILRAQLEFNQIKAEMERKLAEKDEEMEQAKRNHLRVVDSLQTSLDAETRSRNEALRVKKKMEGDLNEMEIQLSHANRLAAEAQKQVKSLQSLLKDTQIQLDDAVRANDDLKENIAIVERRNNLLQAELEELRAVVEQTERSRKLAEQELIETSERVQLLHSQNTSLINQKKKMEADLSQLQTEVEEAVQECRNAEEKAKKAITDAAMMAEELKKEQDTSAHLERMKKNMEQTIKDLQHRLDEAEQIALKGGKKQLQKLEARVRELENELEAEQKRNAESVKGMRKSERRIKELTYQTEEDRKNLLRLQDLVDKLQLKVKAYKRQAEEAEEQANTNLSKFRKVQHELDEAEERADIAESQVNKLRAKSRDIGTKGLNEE
T1 sequence (P85100 whole entry partner): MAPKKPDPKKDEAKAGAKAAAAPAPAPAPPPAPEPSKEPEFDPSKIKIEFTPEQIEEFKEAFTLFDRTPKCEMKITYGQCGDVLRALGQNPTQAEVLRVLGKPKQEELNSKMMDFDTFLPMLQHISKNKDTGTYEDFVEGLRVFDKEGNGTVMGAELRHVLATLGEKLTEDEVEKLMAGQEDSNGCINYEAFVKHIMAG
T1 sequence (Q3SZE5 whole entry partner): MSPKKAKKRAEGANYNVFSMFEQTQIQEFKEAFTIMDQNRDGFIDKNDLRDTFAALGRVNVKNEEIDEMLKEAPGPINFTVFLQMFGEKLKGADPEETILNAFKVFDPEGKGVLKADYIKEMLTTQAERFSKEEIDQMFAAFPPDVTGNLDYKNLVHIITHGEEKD

SMILES: O=C1NC2(CCc3cc(-c4noc(C5CC5)n4)ccc32)CO1 (single isomer, unassigned) [Compound 35B]
CDMF75 IC15: 0.6 µM
IC50: 3.4 µM

SMILES: CCc1nc(-c2ccc3c(c2)OCC32COC(=O)N2)no1 (single isomer, unassigned) [Compound 41A]
CDMF75 IC15: 0.2 µM
IC50: 1 µM

SMILES: CCc1nc(-c2ccc3c(c2)OCC32COC(=O)N2)no1 (single isomer, unassigned) [Compound 41B]
CDMF75 IC15: >39.2 µM
IC50: > 39.2 µM

Next, values leading:

CDMF75 IC15: >39.2 µM
IC50: > 39.2 µM
SMILES: O=C1NC2(CCc3cc(-c4noc(C5CC5)n4)ccc32)CO1 (single isomer, unassigned) [Compound 35A]

CDMF75 IC15: 1.8 µM
IC50: 7.5 µM
SMILES: O=C1NC2(CCc3cc(-c4noc(C(F)F)n4)ccc32)CO1 (single isomer, unassigned) [Compound 38A]

CDMF75 IC15: >39.2 µM
IC50: > 39.2 µM
SMILES: O=C1NC2(CCc3cc(-c4noc(C(F)F)n4)ccc32)CO1 (single isomer, unassigned) [Compound 38B]

CDMF75 IC15: 3.9 µM
IC50: 15.9 µM
SMILES: CCc1nc(-c2ccc3c(c2)CCC3C(=O)Nc2cnn(C)c2)no1 (centres unmarked) [Compound 1, 5-(5-ethyl-1,2,4-oxadiazol-3-yl)-N-(1-methyl-1H-pyrazol-4-yl)-2,3-dihydro-1H-indene-1-carboxamide]
